This note sets out measurements from patent US20130096160A1, “ARYLTHIAZOLYL PIPERIDINES AND RELATED COMPOUNDS AS MODULATORS OF SURVIVAL MOTOR NEURON (SMN) PROTEIN PRODUCTION” (Secretary, Department of Health and Human Services, priority 2010, published 2013).

Molecules are shown by their SMILES.

The subject of the assay is SMN2-luciferase reporter. The assay can be described thus: SMN2-luciferase reporter qHTS assay. Particulars: for Curve Class: agonist/antagonist character of the concentration-response, lower values = more significant concentration-response; for Increased SMN2 activity: percent increase (or decrease) in SMN2 levels compared to control in which no test compound is added. Also noted: key to Curve Class: A curve class of 1.1 is a full agonist/antagonist; a curve class of 4 indicates the compound is inactive. Type of assay: cell-based, human. The text has this:
A cell-based quantitative high throughput screening (qHTS) assay is used to identify compounds able to increase SMN production. The assay uses a SMN2-luciferase reporter to determine if exon 7 of the SMN gene is expressed, which correlates with increased full-length SMN production from the SMN2 gene. As controls, a homologue SMN1-luciferase reporter cell line looks for variations in expression of the SMN1 gene and a cell line with just the luciferase reporter looks at the capacity of the compounds to inhibit luciferase. In addition, increments in SMN production by lead compounds were confirmed by Western-Blot analysis using SMA patient fibroblasts.
For the qHTS assay, concentration-response profiles are generated at the primary-screen level for each library compound to minimize the number of false positives. A dilution series consisting of seven points separated by five-fold concentration differences is prepared for each compound, yielding a concentration series that spans a range of about four orders of magnitude, for example from a high concentration of 50 micromolar to a low concentration of 3.2 nanomolar and providing adequate data for fitting to a Hill equation. For the assay, the SMN2 reporter cell line was plated at a density of ˜2000 cells/well in complete media (phenol red free DMEM, 10% detacl calf serum, and 1× pen/strep), in 1536 well white solid bottom tissue culture treated plates (Greiner). Cells were allowed to adhere and recover at 37 C in 5% CO2 for 10-12 hours. Compounds were added to the plates by a Pintool (Kalypsys) at a volume of 23 nl/well. Cells were incubated in the presence of compounds for 2 days at 37 C in 5% CO2. In order to quantify luciferase reporter levels, 3 ul/well of OneGlo (Promega) was added to each well and incubated at room temperature for 10 minutes. Luminescence from the reporter in each well is measured using a Viewlux CCD based imager (Perkin Elmer) with an integration time of 30 seconds and a binning of 2× in luminescence mode. Sodium butyrate was used as the positive control compound for luciferase induction and a column of 32 wells of 9.2 mM compound on each plate was used to monitor assay performance.
The SMN reporters used herein are modified from those previously described (M. L. Zhang, C. L. Lorson, E. J. Androphy and J. Zhou, An in vivo reporter system for measuring increased inclusion of exon 7 in SMN2 mRNA: potential therapy of SMA, Gene Ther 8 (2001), pp. 1532-1538.)
The sequence of the SMN1 reporter vector used herein is given in SEQ ID NO.:1, while that of the SMN2 reporter vector is given in SEQ ID NO.:2.
Each of the SMN reporters is constructed from three separate DNA fragments: (1) an SMN promotor sequence from the transcriptional reporter p 4.0T (SMN1) or p3.4C (SMN2) described in Monani, et al. Biochimica et Biophysica Acta 1445 (1999) 330-336; (2) a modification of the firefly luciferase splicing reporter for SMN1 or SMN2 described by Zhang et al; and (3) a 744 bp SMN cDNA fragment.
The 3.7 kB SMN1 promoter fragment is obtained by restriction of p4.0T with BglII and SacII. A 3.4 kB SMN2 promoter fragment is obtained by restriction of p3.4C with KpnI and SacII; a 300 bp BglII/KpnI fragment from p4.0T is then added to the 3.4 kB SMN2 promoter fragment to yield the final 3.7 kB SMN2 promoter fragment.
The modified SMN1 and SMN2 firefly luciferase splicing reporters are obtained by removing 4 kB of intron 6 in the original reporter system by restriction with SmaI/Swa followed by religation of the reporter. A 4 kB luciferase splicing reporter is then obtaind by digestion with XhoI and NotI.
Ths SMN cDNA fragment is obtained by generating the productof a polymerase chain reaction (PCR) on a cDNA preparation using […] (SEQ ID NO:3) as the forward primer and Tatctcgagtggtccagaaggaaatggaggcagcc (SEQ ID NO:4) as the reverse primer. The PCR product is then digested with XhoI and SacII. […]
For orientation: A reporter such as luciferase makes a cellular process visible.

As to `N#Cc1ccc(-c2csc(N3CCC(C(N)=O)CC3)n2)cc1` [Example 18, 1-(4-(4-Cyanophenyl)Thiazol-2-yl)Piperidine-4-Carboxamide], the “Curve Class” value was determined as 2.2 and the “Increased SMN2 activity” value was determined as 48.75%.

For `NC(=O)C1CCN(c2nc(-c3ccc(F)cc3)cs2)CC1` [Example 19, 1-(4-(4-Fluorophenyl)Thiazol-2-yl)Piperidine-4-Carboxamide], the “Curve Class” value turned out to be 1.1 and the “Increased SMN2 activity” value is recorded as 287.7%.

For the compound `NC(=O)C1CCN(c2nc(-c3ccc(Cl)cc3)cs2)CC1` [Example 20, 1-(4-(4-Chlorophenyl)Thiazol-2-yl)Piperidine-4-Carboxamide], the “Curve Class” value is recorded as 1.1 and the “Increased SMN2 activity” value is recorded as 380.6%.

In the case of `Cc1ccc(-c2csc(N3CCC(C(N)=O)CC3)n2)cc1` [Example 21, 1-(4-(4-Methylphenyl)Thiazol-2-yl)Piperidine-4-Carboxamide], the “Curve Class” value is 1.1 and the “Increased SMN2 activity” value amounted to 439.1%.

Regarding `NC(=O)C1CCN(c2nc(-c3ccc(C(F)(F)F)cc3)cs2)CC1` [Example 22, 1-(4-(4-Trifluoromethylphenyl)Thiazol-2-yl)Piperidine-4-Carboxamide], the “Curve Class” value came to 1.1 and the “Increased SMN2 activity” value is on record as 386.1%.

On to `COc1ccc(-c2csc(N3CCC(C(N)=O)CC3)n2)cc1` [Example 25, 1-(4-(4-Methoxyphenyl)Thiazol-2-yl)Piperidine-4-Carboxamide], for which the “Curve Class” value came out at 2.1 and the “Increased SMN2 activity” value worked out at 209.1%.

For the compound `NC(=O)C1CCN(c2nc(-c3cccc(Br)c3)cs2)CC1` [Example 26, 1-(4-(3-Bromophenyl)Thiazol-2-yl)Piperidine-4-Carboxamide], the “Curve Class” value came to 2.2 and the “Increased SMN2 activity” value turned out to be 57.55%.

On to `NC(=O)C1CCN(c2nc(-c3ccc(-c4ccccc4)cc3)cs2)CC1` [Example 28, 1-(4-(Biphenyl-4-yl)Thiazol-2-yl)Piperidine-4-Carboxamide], for which the “Curve Class” value turned out to be 2.2 and the “Increased SMN2 activity” value is listed as 58.07%.

As to `NC(=O)C1CCN(c2nc(-c3ccc([N+](=O)[O-])cc3)cs2)CC1` [Example 29, 1-(4-(4-Nitrophenyl)Thiazol-2-yl)Piperidine-4-Carboxamide], the “Curve Class” value worked out at 2.1 and the “Increased SMN2 activity” value is recorded as 254.3%.

On to `NC(=O)C1CCN(c2nc(-c3ccccc3)cs2)CC1` [Example 30, 1-(4-Phenylthiazol-2-yl)Piperidine-4-Carboxamide], for which the “Curve Class” value came to 1.1 and the “Increased SMN2 activity” value turned out to be 166.6%.

In the case of `Brc1ccc(-c2csc(N3CCCCC3)n2)cc1` [Example 32, 4-(4-Bromophenyl)-2-(Piperidin-1-yl)Thiazole], the “Curve Class” value turned out to be 2.1 and the “Increased SMN2 activity” value came out at 272.6%.

For `NC(=O)C1CCN(c2nc(-c3cccc(F)c3)cs2)CC1` [Example 33, 1-(4-(3-Fluorophenyl)Thiazol-2-yl)Piperidine-4-Carboxamide], the “Curve Class” value stood at 2.2 and the “Increased SMN2 activity” value is reported as 64%.

As for `NC(=O)C1CCN(c2nc(-c3cccc(Cl)c3)cs2)CC1` [Example 34, 1-(4-(3-Chlorophenyl)Thiazol-2-yl)Piperidine-4-Carboxamide], the “Curve Class” value amounted to 2.2 and the “Increased SMN2 activity” value turned out to be 53.23%.

For `COc1cccc(-c2csc(N3CCC(C(N)=O)CC3)n2)c1` [Example 35, 1-(4-(3-Methoxyphenyl)Thiazol-2-yl)Piperidine-4-Carboxamide], the “Curve Class” value amounted to 1.1 and the “Increased SMN2 activity” value worked out at 357%.

As to `NC(=O)C1CCN(c2nc(-c3cccc([N+](=O)[O-])c3)cs2)CC1` [Example 37, 1-(4-(3-Nitrophenyl)Thiazol-2-yl)Piperidine-4-Carboxamide], the “Curve Class” value was found to be 2.4 and the “Increased SMN2 activity” value is 20.29%.

Turning to `NC(=O)C1CCN(c2nc(-c3ccccc3F)cs2)CC1` [Example 38, 1-(4-(2-Fluorophenyl)Thiazol-2-yl)Piperidine-4-Carboxamide], the “Curve Class” value turned out to be 1.1 and the “Increased SMN2 activity” value amounted to 274.6%.

Regarding `NC(=O)C1CCN(c2nc(-c3ccccc3Cl)cs2)CC1` [Example 39, 1-(4-(2-Chlorophenyl)Thiazol-2-yl)Piperidine-4-Carboxamide], the “Curve Class” value is 2.2 and the “Increased SMN2 activity” value was found to be 57.61%.

As to `CCOC(=O)C1CCN(c2nc(-c3ccc(Br)cc3)cs2)CC1` [Example 44, Ethyl 1-(4-(4-Bromophenyl)Thiazol-2-yl)Piperidine-4-Carboxylate], the “Curve Class” value worked out at 1.1 and the “Increased SMN2 activity” value is 550.3%.

As to `CC(=O)c1ccc(-c2csc(N3CCC(C(N)=O)CC3)n2)cc1` [Example 45, 1-(4-(4-Acetylphenyl)Thiazol-2-yl)Piperidine-4-Carboxamide], the “Curve Class” value was 2.1 and the “Increased SMN2 activity” value is 130.4%.

`Cc1cccc(-c2csc(N3CCC(C(N)=O)CC3)n2)c1` [Example 46, 1-(4-M-Tolylthiazol-2-yl)Piperidine-4-Carboxamide]: the “Curve Class” value was found to be 2.1 and the “Increased SMN2 activity” value stood at 187.4%.

For the compound `NC(=O)C1CCN(c2nc(-c3ccc4c(c3)OCO4)cs2)CC1` [Example 47, 1-(4-(Benzo[D][1,3]Dioxol-5-yl)Thiazol-2-yl)Piperidine-4-Carboxamide], the “Curve Class” value amounted to 1.1 and the “Increased SMN2 activity” value stood at 359.16%.

With `NC(=O)C1CCN(c2nc(-c3ccc4occc(=O)c4c3)cs2)CC1` [Example 50, 1-(4-(4-Oxo-4H-Chromen-6-yl)Thiazol-2-yl)Piperidine-4-Carboxamide], the “Curve Class” value amounted to 2.1 and the “Increased SMN2 activity” value amounted to 589.68%.

With `NC(=O)C1CCN(c2nc(-c3cccs3)cs2)CC1` [Example 51, 1-(4-(Thiophen-2-yl)Thiazol-2-yl)Piperidine-4-Carboxamide], the “Curve Class” value is 2.2 and the “Increased SMN2 activity” value is on record as 50.93%.

For the compound `NC(=O)C1CCN(c2nc(-c3ccccc3N)cs2)CC1` [Example 53, 1-(4-(2-Aminophenyl)Thiazol-2-yl)Piperidine-4-Carboxamide], the “Curve Class” value came out at 3 and the “Increased SMN2 activity” value was 79.57%.

As for `CC(=O)c1cccc(-c2csc(N3CCC(C(N)=O)CC3)n2)c1` [Example 55, 1-(4-(3-Acetylphenyl)Thiazol-2-yl)Piperidine-4-Carboxamide], the “Curve Class” value stood at 1.1 and the “Increased SMN2 activity” value is 356%.

As for `NC(=O)C1CCN(c2nc(-c3ccc4ccccc4c3)cs2)CC1` [Example 56, 1-(4-(Naphthalen-2-yl)Thiazol-2-yl)Piperidine-4-Carboxamide], the “Curve Class” value was 1.1 and the “Increased SMN2 activity” value came out at 162%.

On to `NC(=O)C1CCN(c2nc(-c3ccc(N4CCCCC4)nc3)cs2)CC1` [Example 60, 1-(4-(6-(Piperidin-1-yl)Pyridin-3-yl)Thiazol-2-yl)Piperidine-4-Carboxamide], for which the “Curve Class” value came to 2.1 and the “Increased SMN2 activity” value is given as 100%.

For `CN(C)C(=O)c1cccc(-c2csc(N3CCC(C(N)=O)CC3)n2)c1` [Example 62, 1-(4-(3-(Dimethylcarbamoyl)Phenyl)Thiazol-2-yl)Piperidine-4-Carboxamide], the “Curve Class” value came to 2.2 and the “Increased SMN2 activity” value stood at 51.18%.
